Measured values: patent publication US20090123564A1, “NOVEL COMPOSITIONS FOR HAIR DISORDERS AND PROCESS OF PREPARATION THEREOF” (priority 2006, published 2009)

How the values were obtained:
[1] = tested on: dihydrotestosterone (DHT); details: cited from earlier work
[2] = tested on: androgen induced alopecia in hamsters; assay: Comparative efficacy of Vernonia anthelmintica extract against finasteride in androgen induced alopecia; format: in vivo; details: for Mean ± SEM hair growth on a 0-3 scale: hamsters given testosterone i.m., treatments twice daily for 21 days, control 2.75 ± 0.171
Experimental: Hamsters were divided into five different groups; one normal control group, three drug treated groups and one testosterone control group. On day 0 of the study, the fur over and around the flank organs was shaved with electric clippers. 95% alcohol (100 μl/site) was applied topically, twice daily to Testosterone Control and Normal control groups for 21 days. Saw Palmetto cream was applied topically (100 mg/site) twice daily for 21 days. 100 μl/site of 2% solution of Vernonia anthelmintica extract was applied topically, twice daily for 21 days. Finasteride (0.6 mg/kg) was administered orally twice daily for 21 days. Different groups except normal control group was administered testosterone (25 mg, i.m. in divided doses of 33.3 μl on day 0, 7, and 14) 1-hour post drug administration. At day 7, the fur around the flank organs was re-clipped. The amount of hair growth on the area surrounding the flank organs was visually graded at weekly intervals on a 0-3 scale (0=bald skin, 1=slight hair growth, 2=moderate hair growth and 3=full hair growth). The result is presented in table-2 and shown graphically in FIG. 3.

[3] = tested on: testosterone-induced alopecia in hamsters; assay: Dose-response of Vernonia extract gel versus Vernonia freeze dried juice gel in testosterone-challenged hamsters; format: in vivo; details: day 22; 0-3 scale; normal control=1.31±0.18
Experimental: A further study was performed to study the dose-response of Vernonia extract gel and to compare its hair growth promoting effect against Vernonia freeze dried juice gel. The Vernonia extract gel was prepared by making an organic solvent extract of Vernonia and formulating it into a gel composition. The Vernonia freeze dried juice gel was prepared by expressing the juice from fresh leaves and flowering tops of Vernonia followed by freeze drying and formulating it into a gel composition. Male hamsters (n=6-8/group) weighing 80-90 g procured from the Central animal house of Panacea Biotec Ltd. were used. Drugs used to induce alopecia was Testosterone i.m. depot injection (Testoviron); B.No. K1007, German Remedies Limited; each ml of which contains Testosterone Enanthate USP . . . 250 mg and Arachis oil IP . . . qs. The following were used for conducting the study namely Vernonia extract gels B.No. 0629/030A (0.5% w/w), B.No. 0629/030B (1% w/w) and B.No. 0629/030C (2% w/w); and Vernonia freeze dried juice gels B.No. 0629/026A (1.25% w/w) and B.No. 0629/026B (2.5% w/w) (prepared according to Example-5 and Example-6 as stated hereinafter). […]
(§1) Testosterone was administered intramuscularly in divided doses, whereas Vernonia cream (s) (100 mg) was applied topically twice daily. […] The hair growth presented as mean was analyzed by one-way ANOVA followed by Student-Newman-Keuls multiple-range test. […]

[4] = tested on: testosterone-induced alopecia in hamsters; assay: Vernonia anthelmintica extract against testosterone-induced alopecia in hamsters; format: in vivo; details: day 22; visual grading on 0-3 scale (0=bald skin, 3=full hair growth); control=2.0
Experimental: The efficacy of an extract of Vernonia anthelmintica (prepared according to Example-1 as stated hereinafter) against testosterone-induced alopecia in hamsters was studied. Male hamsters (n=6/group) weighing 90-120 g were procured from central animal house of Panacea Biotec Ltd. for study. Drugs used to induce alopecia was Testosterone i.m. depot injection (Testoviron); B.No. K1007, German Remedies Limited; each ml of which contains Testosterone Enanthate USP . . . 250 mg and Arachis oil IP . . . qs. The route of administration of the cream compositions was topical and the duration of study was 22 days. Hamsters were divided into two different groups; one Vernonia anthelmintica extract treated groups and another testosterone control group. On day 0 of study, the fur over and around the flank organs would be shaved with electric clippers.
Testosterone was administered intramuscularly in divided doses, whereas Vernonia anthelmintica extract was applied topically twice daily for 21 days. On day 7, the fur around the flank organs was re-clipped. The amount of hair growth on the area surrounding the flank organs was visually graded on day 22 on a 0-3 scale (0=bald skin, 1=slight hair growth, 2=moderate hair growth and 3=full hair growth). Photographs of flank organ were taken on day 0 and 22. […]

[5] = tested on: testosterone-induced alopecia in hamsters; assay: Strength of Vernonia creams in testosterone-induced alopecia in hamsters; format: in vivo; details: day 22; 0-3 scale; creams 100 mg topical bid for 21 days; normal control=3
Experimental: Male hamsters (n=6/group) weighing 80-90 g procured from Central animal house of Panacea Biotec Ltd. were used. Drugs used to induce alopecia was Testosterone i.m. depot injection (Testoviron); B.No. K1007, German Remedies Limited; each ml of which contains Testosterone Enanthate USP . . . 250 mg and Arachis oil IP . . . qs. Four batches of Vernonia creams of different strengths were used for conducting the study namely B.No. 0629/010A (2% w/w), B.No. 0629/010C (0.2% w/w), B.No. 0629/014A (2% w/w) and B.No. 0629/014C (0.2% w/w) prepared according to Example-3 and Example 4 as stated hereinafter. The route of administration of the cream compositions was topical and the duration of study was 22 days. The fur over and around the flank organs of hamsters was shaved with electric clippers. Hamsters were divided into four different groups and allocated different treatments. The summary of different treatments is represented in Table-3.
as §1, with “cream(s)” for “cream (s)”, “daily. All the treatments were given for 21 days. On day 7, the fur around the flank organs was re-clipped.” for “daily.”

[6] = tested on: leukenia cells L-1210; details: L-1210 cells; cited from earlier work
[7] = tested on: leukenia cells P-388; details: P-388 cells; cited from earlier work
[8] = tested on: human carcinoma nasopharynx cells; details: cited from earlier work

CC(C)(C)NC(=O)[C@H]1CC[C@H]2[C@@H]3CC[C@H]4NC(=O)C=C[C@]4(C)[C@H]3CC[C@]12C [Finasteride]
Decrease of DHT concentration in the scalp ([1]; scalp): ≤ 60% | Decrease of DHT concentration in the serum ([1]; serum): up to 70% | Reversal of testosterone induced-hair loss ([2]; day 22): significantly reversed testosterone induced-hair loss | Mean ± SEM hair growth on a 0-3 scale [2]: 2.20 ± 0.339

CCCCCCC(=O)O[C@H]1CC[C@H]2[C@@H]3CCC4=CC(=O)CC[C@]4(C)[C@H]3CC[C@]12C [Testosterone, Testosterone Enanthate]
Hair growth score [3]: 0 | Mean ± SEM hair growth on a 0-3 scale [2]: 1.33 ± 0.211 | Hair growth score [4]: 0.58±0.15 | Hair growth score [5]: 0.13

vernodaline
IC50, antitumoral effects [6]: 0.17 µg/mL | IC50, antitumoral effects [7]: 0.11 µg/mL

vernolide
IC50, cytotoxic effects [8]: 2.0 µg/mL | IC50, antitumoral effects [6]: 0.11 µg/mL | IC50, antitumoral effects [7]: 0.13 µg/mL
